These results are taken from publication PMC11170107, “Development of a new hazard scoring system in primary neuronal cell cultures for drug-induced acute neuronal toxicity identification in early drug discovery” (Frontiers in Pharmacology, 2024).

“Also recorded” adds a separate entry of the source.

System in the first series: not given
Assay: not given
Conditions: established from VigiBase, SIDER, Elsevier drug information and FDA prescribing information.
With `N=C(N)NC(=O)c1nc(Cl)c(N)nc1N` [Amiloride], the “Classification* (degree of seizure risk)” value is listed as “No risk”.
On to `O=C(CCCl)NCc1ccccc1` [Beclamide], for which the “Classification* (degree of seizure risk)” value was “Low risk”.
The same measure, in the same setting: to `COc1cc(C(C)=O)ccc1OCCCN1CCC(c2noc3cc(F)ccc23)CC1` [Iloperidone] belongs “Low risk”.
Turning to `CNC1(c2ccccc2Cl)CCCCC1=O` (stereo not shown) [Ketamine], the “Classification* (degree of seizure risk)” value is recorded as “Low risk”.
On the same count and under the same terms, to `Nc1nnc(-c2cccc(Cl)c2Cl)c(N)n1` [Lamotrigine] belongs “Risk”; to `O=C1Nc2ccc(Cl)cc2C(c2ccccc2Cl)=NC1O` (stereo not shown) [Lorazepam], “Risk”.
In the case of `CN1CCN(C2=Nc3ccccc3Oc3ccc(Cl)cc32)CC1` [Loxapine], the “Classification* (degree of seizure risk)” value is on record as “Risk”.
On the same count and under the same terms, in the case of `NC(=O)C[S+]([O-])C(c1ccccc1)c1ccccc1` (stereo not shown) [Modafinil] it was “Risk”; in that of `NCc1cc(=O)[nH]o1` [Muscimol], “Risk”.
Still for that read-out and setting: in the case of `N#Cc1ccccc1-c1cc(-c2ccccn2)cn(-c2ccccc2)c1=O` [Perampanel] it was “Low risk”; in that of `C[N+](C)(C)CCOC(=O)CCC(=O)OCC[N+](C)(C)C` [Succinylcholine], “No risk”; in that of `CNS(=O)(=O)Cc1ccc2[nH]cc(CCN(C)C)c2c1` [Sumatriptan], “Risk”.
Still for that read-out and setting: in the case of `Cc1ccc(C(=O)c2cc(O)c(O)c([N+](=O)[O-])c2)cc1` [Tolcapone] it was “No risk”; in that of `Cc1ccc(Nc2nccc(N(C)c3ccc4c(C)n(C)nc4c3)n2)cc1S(N)(=O)=O` [pazopanib], “Risk”; in that of Picrotoxin, “Risk”.

The subject of the next series is rat primary cortical neurons. The series is described as follows: MEA hazard scoring in rat primary cortical neuronal cultures. Particulars: rat primary neurons on MEA.
Method: At DIV28, spontaneous neuronal activity obtained for 30 min in culture solution was defined as the baseline.
Data analysis was captured using AxIs suite software (Axion Biosystems Inc., version 3.6.2) and further analyzed using GraphPad Prism (version 9.00; GraphPad Software Inc., San Diego, CA). […] An active well should have more than 40% active electrodes. All wells below this threshold were discarded upon these quality criteria. For the downstream statistical analysis, the data on each MEA parameter was first expressed as the ratio of exposed wells (percentage change between baseline and the treatment) and then normalized to the average of the control within the same plate. i.e., Baseline corrected ratios of n= 7 or eight wells were averaged per condition. Each well of the MEA served as its own control, and the changes in the electrical activity elicited by the treatments were expressed as a percentage of that control activity and normalized to the wells treated with the vehicle control dimethyl sulfoxide (DMSO). […] Differences were determined using the non-parametric Wilcoxon Mann Whitney test; p-values below 0.05 were considered significant. Data are expressed as means ± S.E.M.
Thereafter, based on the effects of vehicles and positive controls, we determined the cut-off points between the different effect zones according to the key parameters selected as described in the previous subsection. The zones were defined as follows. The “no effect” zone reflects parameter changes that are most likely within vehicle variability. The “mild” and “strong” zones are differentiated bidirectionally showing mild and strong effects.
The respective hazard class was determined by a cumulative scoring of individual parameters using a scoring matrix, which was based on the following three fundamental components: (1) selection of the six key relevant parameters, (2) defining the cutoffs for the level of effect, and (3) defining weighted points per parameter for the level of hazard potential. The scoring matrix concluded with the addition of a weighted point algorithm to discriminate distinct degrees of neuronal hazard. […] The weighted points were defined on the importance of a parameter (and the direction of effect), as well as the identification of an expected hazard for different pharmacological modes of action. The overall hazard score is derived from the sum of all weighted parameters, which could be converted into a specific hazard label. The weighted points and total score range associated with the various hazard labels were optimized using an iterative process.
`N=C(N)NC(=O)c1nc(Cl)c(N)nc1N` [Amiloride]: the “hazard classification in the hazard scoring system” value (from here on “hazard classification”) is on record as “high seizure risk”.
Regarding `O=C(CCCl)NCc1ccccc1` [Beclamide], the “hazard classification” value was “high hazard”.
As to `N#Cc1ccccc1-c1cc(-c2ccccn2)cn(-c2ccccc2)c1=O` [Perampanel], the “hazard classification” value is “hazards; also recorded: high hazard”.

Staying with this series, now noted: rodent cortical neurons in vitro.
Take `N=C(N)NC(=O)c1nc(Cl)c(N)nc1N` [Amiloride]: the “firing rate (weighted mean firing rate) in MEA recordings” value is reported as “increase of activity”.

The series is the same for the next values; noted with them: statistical tolerance interval of the ΔΔ% effect; One-sided interval.
Regarding `NCc1cc(=O)[nH]o1` [Muscimol], the “Area.Under.Cross.Correlation Lower.TI” value is given as -100, the “Area.Under.Cross.Correlation Upper.TI” value was -21.99, the “Burst.Duration...Avg.(s. Lower.TI)” value is -100 and the “Burst.Duration...Avg.(s. Upper.TI)” value is 465.5. Also, the “Mean.Firing.Rate..Hz. Lower.TI” value is on record as -100, the “Mean.Firing.Rate..Hz. Upper.TI” value is on record as -23.34, the “Median.Mean.ISI Lower.TI” value is -100 and the “Median.Mean.ISI Upper.TI” value was determined as 1.885.
For Picrotoxin, the “Area.Under.Cross.Correlation Lower.TI” value is -46.52, the “Area.Under.Cross.Correlation Upper.TI” value is listed as 62.45, the “Burst.Duration...Avg.(s. Lower.TI)” value is -2.013 and the “Burst.Duration...Avg.(s. Upper.TI)” value is 280.4. Further, the “Mean.Firing.Rate..Hz. Lower.TI” value is listed as -10.62, the “Mean.Firing.Rate..Hz. Upper.TI” value is reported as 76.43, the “Median.Mean.ISI Lower.TI” value was -29.71 and the “Median.Mean.ISI Upper.TI” value is 0.6132.

System in a further series: not given
Assay: not given
Particulars: WHO adverse drug reactions VigiBase; ref Kumlien and Lundberg, 2010; cited from earlier work.
For `N=C(N)NC(=O)c1nc(Cl)c(N)nc1N` [Amiloride], the “Percentage seizures of total number of ADRs” value (“Percentage seizures” below) is 0.3506%.
Consider `O=C(CCCl)NCc1ccccc1` [Beclamide], for which the “Percentage seizures” value is reported as 0%.
With `COc1cc(C(C)=O)ccc1OCCCN1CCC(c2noc3cc(F)ccc23)CC1` [Iloperidone], the “Percentage seizures” value is 1.653%.
With `CNC1(c2ccccc2Cl)CCCCC1=O` (stereo not shown) [Ketamine], the “Percentage seizures” value is recorded as 1.967%.
For `Nc1nnc(-c2cccc(Cl)c2Cl)c(N)n1` [Lamotrigine], the “Percentage seizures” value is 7.325%.
For `O=C1Nc2ccc(Cl)cc2C(c2ccccc2Cl)=NC1O` (stereo not shown) [Lorazepam], the “Percentage seizures” value was 1.949%.
`CN1CCN(C2=Nc3ccccc3Oc3ccc(Cl)cc32)CC1` [Loxapine]: the “Percentage seizures” value was 1.962%.
On to `NC(=O)C[S+]([O-])C(c1ccccc1)c1ccccc1` (stereo not shown) [Modafinil], for which the “Percentage seizures” value is 1.739%.
As for `N#Cc1ccccc1-c1cc(-c2ccccn2)cn(-c2ccccc2)c1=O` [Perampanel], the “Percentage seizures” value is listed as 7.31%.
As for `CC(C)C[C@H](CN)CC(=O)O` [Pregabalin], the “Percentage seizures” value is given as 0.8034%.
Turning to `C[N+](C)(C)CCOC(=O)CCC(=O)OCC[N+](C)(C)C` [Succinylcholine], the “Percentage seizures” value is 0.792%.
Regarding `CNS(=O)(=O)Cc1ccc2[nH]cc(CCN(C)C)c2c1` [Sumatriptan], the “Percentage seizures” value is on record as 0.8281%.
Consider `Cc1ccc(C(=O)c2cc(O)c(O)c([N+](=O)[O-])c2)cc1` [Tolcapone], for which the “Percentage seizures” value is 0.8264%.
Turning to `Cc1ccc(Nc2nccc(N(C)c3ccc4c(C)n(C)nc4c3)n2)cc1S(N)(=O)=O` [pazopanib], the “Percentage seizures” value is on record as 0.4565%.

System in a further series: not given
Assay: not given
Conditions: ref National library of medicine, Daylimed; cited from earlier work.
Consider `N=C(N)NC(=O)c1nc(Cl)c(N)nc1N` [Amiloride], for which the “FDA prescription information at therapeutic dose (Convulsion/ Seizure/Lower the seizure threshold/withdrawal)” value is “not found on label”.
On to `CN1C(=O)CN=C(c2ccccc2)c2cc(Cl)ccc21` [Diazepam], for which the “FDA prescription information at therapeutic dose (Convulsion/ Seizure/Lower the seizure threshold/withdrawal)” value is “On label”.
For `NCC(=O)O` [Glycine], the “FDA prescription information at therapeutic dose (Convulsion/ Seizure/Lower the seizure threshold/withdrawal)” value was “not found on label”.
Turning to `COc1cc(C(C)=O)ccc1OCCCN1CCC(c2noc3cc(F)ccc23)CC1` [Iloperidone], the “FDA prescription information at therapeutic dose (Convulsion/ Seizure/Lower the seizure threshold/withdrawal)” value is “not found on label”.
Take `CNC1(c2ccccc2Cl)CCCCC1=O` (stereo not shown) [Ketamine]: the “FDA prescription information at therapeutic dose (Convulsion/ Seizure/Lower the seizure threshold/withdrawal)” value is “not found on label”.
For `Nc1nnc(-c2cccc(Cl)c2Cl)c(N)n1` [Lamotrigine], the “FDA prescription information at therapeutic dose (Convulsion/ Seizure/Lower the seizure threshold/withdrawal)” value is given as “On label”.
Consider `O=C1Nc2ccc(Cl)cc2C(c2ccccc2Cl)=NC1O` (stereo not shown) [Lorazepam], for which the “FDA prescription information at therapeutic dose (Convulsion/ Seizure/Lower the seizure threshold/withdrawal)” value is on record as “on label”.
In the case of `CN1CCN(C2=Nc3ccccc3Oc3ccc(Cl)cc32)CC1` [Loxapine], the “FDA prescription information at therapeutic dose (Convulsion/ Seizure/Lower the seizure threshold/withdrawal)” value is recorded as “On label”.
On to `NC(=O)C[S+]([O-])C(c1ccccc1)c1ccccc1` (stereo not shown) [Modafinil], for which the “FDA prescription information at therapeutic dose (Convulsion/ Seizure/Lower the seizure threshold/withdrawal)” value is recorded as “not found on label”.
For the compound `N#Cc1ccccc1-c1cc(-c2ccccn2)cn(-c2ccccc2)c1=O` [Perampanel], the “FDA prescription information at therapeutic dose (Convulsion/ Seizure/Lower the seizure threshold/withdrawal)” value was “not found on label”.
Consider `C[N+](C)(C)CCOC(=O)CCC(=O)OCC[N+](C)(C)C` [Succinylcholine], for which the “FDA prescription information at therapeutic dose (Convulsion/ Seizure/Lower the seizure threshold/withdrawal)” value is “not found on label”.
Turning to `CNS(=O)(=O)Cc1ccc2[nH]cc(CCN(C)C)c2c1` [Sumatriptan], the “FDA prescription information at therapeutic dose (Convulsion/ Seizure/Lower the seizure threshold/withdrawal)” value is on record as “On label”.
As for `Cc1ccc(C(=O)c2cc(O)c(O)c([N+](=O)[O-])c2)cc1` [Tolcapone], the “FDA prescription information at therapeutic dose (Convulsion/ Seizure/Lower the seizure threshold/withdrawal)” value was “not found on label”.
With `Cc1ccc(Nc2nccc(N(C)c3ccc4c(C)n(C)nc4c3)n2)cc1S(N)(=O)=O` [pazopanib], the “FDA prescription information at therapeutic dose (Convulsion/ Seizure/Lower the seizure threshold/withdrawal)” value was “not found on label”.

System in another series: not given
Assay: not given
Conditions: Supplementary Table S1; cited from earlier work.
In the case of `N=C(N)NC(=O)c1nc(Cl)c(N)nc1N` [Amiloride], the “Free Cmax highest” value is on record as 0.0746 µM.
For the compound `COc1cc(C(C)=O)ccc1OCCCN1CCC(c2noc3cc(F)ccc23)CC1` [Iloperidone], the “Free Cmax highest” value is listed as 0.012 µM.
Consider `CNC1(c2ccccc2Cl)CCCCC1=O` (stereo not shown) [Ketamine], for which the “Free Cmax highest” value is 1.74 µM.
`Nc1nnc(-c2cccc(Cl)c2Cl)c(N)n1` [Lamotrigine]: the “Free Cmax highest” value is 8.6 µM.
For `O=C1Nc2ccc(Cl)cc2C(c2ccccc2Cl)=NC1O` (stereo not shown) [Lorazepam], the “Free Cmax highest” value was 0.022 µM.
As to `CN1CCN(C2=Nc3ccccc3Oc3ccc(Cl)cc32)CC1` [Loxapine], the “Free Cmax highest” value is reported as 0.044 µM.
As to `NC(=O)C[S+]([O-])C(c1ccccc1)c1ccccc1` (stereo not shown) [Modafinil], the “Free Cmax highest” value is 19.6 µM.
For `N#Cc1ccccc1-c1cc(-c2ccccn2)cn(-c2ccccc2)c1=O` [Perampanel], the “Free Cmax highest” value is given as 0.163 µM.
`CCOC(=O)C1(c2ccccc2)CCN(C)CC1` [Pethidine]: the “Free Cmax highest” value is 0.25 µM.
With `C[N+](C)(C)CCOC(=O)CCC(=O)OCC[N+](C)(C)C` [Succinylcholine], the “Free Cmax highest” value is reported as 0.17 µM.
In the case of `CNS(=O)(=O)Cc1ccc2[nH]cc(CCN(C)C)c2c1` [Sumatriptan], the “Free Cmax highest” value is 0.388 µM.
Consider `Cc1ccc(C(=O)c2cc(O)c(O)c([N+](=O)[O-])c2)cc1` [Tolcapone], for which the “Free Cmax highest” value is on record as 0.01 µM.
With `Cc1ccc(Nc2nccc(N(C)c3ccc4c(C)n(C)nc4c3)n2)cc1S(N)(=O)=O` [pazopanib], the “Free Cmax highest” value is recorded as 1.33 µM.

The test system of the next series is rat primary cortical neurons.
Assay: not given
Conditions: not given
Regarding `CN1C(=O)CN=C(c2ccccc2)c2cc(Cl)ccc21` [Diazepam], the “hazard score group in Figure 3” value is reported as “Neuro Active to high hazard”.
As to `NCC(=O)O` [Glycine], the “hazard score group in Figure 3” value is “Neuro Active to hazard”.
On the same count and under the same terms, to `CCOC(=O)C1(c2ccccc2)CCN(C)CC1` [Pethidine] belongs “Neuro Active to hazard”.
Still for that read-out and setting: in the case of `CC(C)C[C@H](CN)CC(=O)O` [Pregabalin] it was “Non-Neuro Active”.

System in another series: not given
Assay: not given
Particulars: seizure ADR frequency in SIDER; ref Campillos et al., 2008; Kuhn et al., 2010; cited from earlier work.
Turning to `N=C(N)NC(=O)c1nc(Cl)c(N)nc1N` [Amiloride], the “SIDER ADR on-/off-label” value is listed as “not found on label”.
On to `NCC(=O)O` [Glycine], for which the “SIDER ADR on-/off-label” value is recorded as “no frequency information”.
On to `COc1cc(C(C)=O)ccc1OCCCN1CCC(c2noc3cc(F)ccc23)CC1` [Iloperidone], for which the “SIDER ADR on-/off-label” value was “not found on label”.
Take `CNC1(c2ccccc2Cl)CCCCC1=O` (stereo not shown) [Ketamine]: the “SIDER ADR on-/off-label” value is “no frequency information”.
Take `Nc1nnc(-c2cccc(Cl)c2Cl)c(N)n1` [Lamotrigine]: the “SIDER ADR on-/off-label” value is 1.9% - 4%.
Regarding `O=C1Nc2ccc(Cl)cc2C(c2ccccc2Cl)=NC1O` (stereo not shown) [Lorazepam], the “SIDER ADR on-/off-label” value is on record as “postmarketing — 0.769%”.
For the compound `CN1CCN(C2=Nc3ccccc3Oc3ccc(Cl)cc32)CC1` [Loxapine], the “SIDER ADR on-/off-label” value is “no frequency information”.
Take `NC(=O)C[S+]([O-])C(c1ccccc1)c1ccccc1` (stereo not shown) [Modafinil]: the “SIDER ADR on-/off-label” value is “postmarketing”.
On to `N#Cc1ccccc1-c1cc(-c2ccccn2)cn(-c2ccccc2)c1=O` [Perampanel], for which the “SIDER ADR on-/off-label” value was “not found on label”.
On to `CCOC(=O)C1(c2ccccc2)CCN(C)CC1` [Pethidine], for which the “SIDER ADR on-/off-label” value is recorded as “no frequency information”.
On to `C[N+](C)(C)CCOC(=O)CCC(=O)OCC[N+](C)(C)C` [Succinylcholine], for which the “SIDER ADR on-/off-label” value is listed as “not found on label”.
Consider `CNS(=O)(=O)Cc1ccc2[nH]cc(CCN(C)C)c2c1` [Sumatriptan], for which the “SIDER ADR on-/off-label” value is “rare (<0.1%)”.
Take `Cc1ccc(C(=O)c2cc(O)c(O)c([N+](=O)[O-])c2)cc1` [Tolcapone]: the “SIDER ADR on-/off-label” value is “not found on label”.
As for `Cc1ccc(Nc2nccc(N(C)c3ccc4c(C)n(C)nc4c3)n2)cc1S(N)(=O)=O` [pazopanib], the “SIDER ADR on-/off-label” value is given as “not found on label”.
